From patent US20240164998A1, “FRAGRANCE COMPOSITION” (TAKASAGO INTERNATIONAL CORPORATION, priority 2022, published 2024) come the findings set out here.

Counter-ions that a name gives are not always drawn.

Assay [1] in a line: Sensory evaluation of fragrance compositions against model body odor. Also noted: species or system people. Conditions: each malodor (model body odor, model nursing care odor); substance in floral base fragrance composition. How it is done:
TEC in the tables indicates triethyl citrate. […] Note that, a grouping method and the ratio within the groups are optional and are not limited by Table 9. Floral bases in Table 2 to Table 8 were prepared according to Table 10.
The malodor prevention ability of these fragrance compositions was confirmed by sensory evaluation. As for malodor, model body odor and model nursing care odor containing hexanal as one of key components were prepared according to Table 11 and Table 12. 10 μL of each model malodor and 1 μL of the fragrances 1 to 60 as test substances were dropped into a cotton ball, which was charged into a plastic bottle. The bottle was left standing at room temperature for 30 minutes to allow odor molecules to sufficiently volatilize inside the bottle. A sensory evaluation test was performed by a panel of 20 people, the discomfort when the malodor was dropped alone was rated as −3, and the discomfort when the test substance was mixed was evaluated from −4 (extremely discomfortable) to +4 (extremely comfortable). An average value was calculated from the obtained numerical values.

Assay [2] can be described thus: Sensory evaluation of malodor prevention ability of group A against hexanal odor. The following applies: scale 0 (no malodor felt) to 10 (very strong); hexanal alone rated 8; 10 μL hexanal diluted 100 times + 1 μL test substance, 1 hour room temperature; average of panel of 20. Also noted: species or system people. The protocol: The malodor prevention ability of a test substance was confirmed by sensory evaluation. As malodor, 10 μL of hexanal diluted 100 times with dipropylene glycol and 1 μL of the test substance were dropped into a cotton ball, which was charged into a plastic bottle. The bottle was left standing at room temperature for 1 hour to allow odor molecules to sufficiently volatilize inside the bottle. A sensory evaluation test was performed by a panel of 20 people, a malodor intensity when the malodor was dropped alone was rated as 8, and the odor intensity when the test substance was mixed was evaluated from 0 (no malodor was felt) to 10 (very strong malodor was felt). An average value was calculated from the obtained numerical values.

Turning to `O=C1CCCC=CCCCCCCCCCC1` [Ambretone, 5-cyclohexadecenone], the “effect on reducing the discomfort due to malodor (in words)” value (“effect on reducing the discomfort due” below) in assay [1] is “reduced the discomfort due to each malodor”. The Hexanal odor intensity in assay [2] worked out at 3.5.
Regarding `CC1CCC(C(C)C)C(OCC(O)CO)C1` (stereo not shown) [COOLACT 10, 3-(menthoxy)propane-1,2-diol], the Hexanal odor intensity in assay [2] amounted to 3.3.
Regarding `C=C(C)C1CC=C(C)C(=O)C1` (stereo not shown) [Carvone, reference compound], in assay [2], the Hexanal odor intensity worked out at 7.1.
`CCCC(O)CCC1C(C)CCCC1(C)C` (stereo not shown) [Dextramber, 1-(2,2,6-trimethylcyclohexyl)hexan-3-ol]: the “effect on reducing the discomfort due” value in assay [1] is on record as “reduced the discomfort due to each malodor”. Moreover, the Hexanal odor intensity in assay [2] was 3.0.
For `CCCCCC1C(=O)CCC1CC(=O)OC` (stereo not shown) [Hedione, methyl (2-pentyl-3-oxo-cyclopentyl) acetate] the same measures were “reduced the discomfort due to each malodor” and 4.2.
Taken in the same sequence, the figures for `CC(=CCC1CC=C(C)C1(C)C)CO` (stereo not shown) [Hindinol, 2-methyl-4-(2,2,3-trimethyl-3-cyclopentenyl)-2-buten-1-ol] were “reduced the discomfort due to each malodor” and 3.9.
With `C=C(C)[C@@H]1CC[C@@H](C)C[C@H]1O` [Isopulegol, isopulegol], the “effect on reducing the discomfort due” value in assay [1] is listed as “reduced the discomfort due to each malodor”. Besides, the Hexanal odor intensity in assay [2] is recorded as 3.4.
Consider `CC(C)[C@@H]1CC[C@@H](C)CC1=O` [Menthone, reference compound], for which the Hexanal odor intensity in assay [2] came to 6.9.
Take `CC(=O)C1(C)CC2=C(CCCC2(C)C)CC1C` (stereo not shown) [Orbitone, 2-acetyl-2,3,8,8-tetramethyloctarine]: in assay [1], the “effect on reducing the discomfort due” value was “reduced the discomfort due to each malodor”. Besides, the Hexanal odor intensity in assay [2] was found to be 3.9.
For the molecule `CC(c1ccccc1)C1CC1C(C)(C)O` (stereo not shown) [Pamplefix, 50% triethyl citrate solution, dimethyl-2-(1-phenylethyl)cyclopropylmethanol], the “effect on reducing the discomfort due” value in assay [1] was “reduced the discomfort due to each malodor”. The Hexanal odor intensity in assay [2] turned out to be 4.1.
For `CC1=CCC(C(C)C)C=C1` (stereo not shown) [Phellandrene, p-mentha-1,5-diene] the same measures were “reduced the discomfort due to each malodor” and 4.1.
For `CCOC(=O)C1C(C)CCCC1(C)C` (stereo not shown) [Thesaron, ethyl 2,2,6-trimethylcyclohexane-1-carboxylate] the same measures were “reduced the discomfort due to each malodor” and 2.6.
Take `CCOC(=O)C(C)C(C)S` (stereo not shown) [ethyl 3-mercapto-2-methylbutyrate]: the “effect on reducing the discomfort due” value in assay [1] is listed as “reduced the discomfort due to each malodor”. In assay [2], the Hexanal odor intensity stood at 3.1.
For `CC(=O)C(C)=CC1C(C)=CCCC1(C)C` (stereo not drawn) [α-isomethylionone, 3-methyl-4-(2,6,6-trimethyl-2-cyclohexen-1-yl)-3-buten-2-one] the same measures were “reduced the discomfort due to each malodor” and 3.1.
